Measurements published in publication PMC5412877, “Discovery of a PCAF Bromodomain Chemical Probe” (Angewandte Chemie (International Ed. in English), 2016).
Entries after “also recorded” stand apart in the source; their conditions may differ. Like-named read-outs stand apart in the source and are kept apart here. Marks after values point to notes of the source that are not given here.

Columns and labels:
PCAF Brd [1] = molecular target: T1, PCAF Brd (Homo sapiens, UniProt Q92831); test: Differential scanning fluorimetry (DSF), PCAF Brd; type: binding; conditions: for ΔT m [°C] PCAF (DSF): compound concentration 10 μM
T1 construct: Human bromodomains were cloned, expressed and purified as previously described; made in house
T1 sequence (Q92831 723-827 limits assumed): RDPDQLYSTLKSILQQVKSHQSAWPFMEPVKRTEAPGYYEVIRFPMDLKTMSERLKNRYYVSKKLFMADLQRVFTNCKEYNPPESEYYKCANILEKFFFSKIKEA
Method: (§1) Protein Expression and Purification
(§2) Human bromodomains were cloned, expressed and purified as previously described.[1]
(§3) Differential Scanning Fluorimetry (DSF)
(§4) Thermal melting points were recorded using an Mx3005p Real Time PCR Machine (Stratagene).
(§5) Subject proteins were buffered in 10 mM HEPES at pH 7.5, 500 mM NaCl and assayed in a 96-well […]
(§6) plate at a final concentration of 2 μM in 20 μL volume. Compounds were then added to a final […]
(§7) concentration of 10 μM. SPYRO Orange (Molecular Probes) was used as a fluorescent probe at a […]
(§8) dilution of 1:1000. Excitation and emission filters for the SPYRO-Orange dye were set to 465 nm and […]
(§9) 590 nm, respectively. The temperature was raised with a step of 3 °C/min from 25 °C to 96 °C and […]
(§10) fluorescence readings were taken at each interval. Data was analysed as previously described.[2]
(§11) Bromodomain affinity selectivity panel of (S)-11
(§12) Supplemental Figure 1. DSF Selectivity panel of (S)-11 against 48 human Bromodomains. […]
(§13) ┼Mean ΔTm ± SEM (number of measurements= 2). Compound concentration: 10 μM […]
(§14) (1 picture or pasted object on this page, not shown here)

48 human Brds = test: DSF selectivity panel of 48 human bromodomains; type: binding; conditions: compound 10 μM
PCAF Brd [2] = molecular target: T1, PCAF Brd; test: Isothermal titration calorimetry (ITC), PCAF Brd; type: binding
Method: (§15) Isothermal Titration Calorimetry (ITC)
(§16) Experiments were carried out on a Nano-ITC Standard Volume Instrument (TA Instruments). All experiments were carried out at 25 °C in 20 mM HEPES pH 7.5, 150 mM NaCl, 0.5 mM TCEP and 5% glycerol. Protein solutions were buffer exchanged by gel filtration. The titrations were conducted using an initial injection of 2 μL followed by 32 injections of 8 μL. Background dilution heat was substracted from each experiment. Thermodynamic parameters were calculated using ΔG = ΔH-T ΔS = -RTlnKB , where KD = 1/KB. ΔG, ΔH and ΔS are changes in free energy, enathalpy and entropy resepectively. Independent single site binding models were employed in data analysis.
(§17) Supplemental Figure 3. ITC trace of D-Moses and PCAF Brd […]

GCN5L2 = molecular target: T2, GCN5L2 (Homo sapiens, UniProt Q92830); test: Differential scanning fluorimetry (DSF), GCN5 (GCN5L2) Brd; type: binding; conditions: compound 10 μM
T2 construct: made in house
T2 sequence (Q92830 728-832 limits assumed): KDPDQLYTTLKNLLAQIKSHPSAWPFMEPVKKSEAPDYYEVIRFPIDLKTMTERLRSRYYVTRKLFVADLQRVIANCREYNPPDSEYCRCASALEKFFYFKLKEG
Method: as §1, §2, §3, §4, §5, §6, §7, §8, §9, §10, §11, §12, §13, §14

HIV‐1 = conditions: cited from earlier work
GST-PCAFBRD = molecular target: T3, GST-PCAFBRD (Homo sapiens, UniProt Q92831); test: HTRF assay, displacement of biotinylated compound 46 from GST-PCAF Brd; type: binding
T3 construct: Final assay concentrations: GST-PCAFBRD (20 nM)
T3 sequence (Q92831 723-827 limits assumed): T1 sequence (Q92831 723-827 limits assumed)
Method: (§18) obtained from 5 healthy donors. PBMC were cultured either with D-Moses or L-Moses at concentrations of 0.1, 1 and 10 μM or with a control (DMSO) for 24 hours. Viability of PBMC were then checked using LIVE/DEAD Fixable Aqua Dead Cell Stain Kit (ThermoFisher Scientific).
(§19) High Throughput Time Resolved Fluorescence Assay (HTRF)
(§20) HTRF assay was carried out using a Cisbio Epigenous kit B (62BDBPEH) using the standard assay protocol with GST-PCAFBRD.[3] Final assay concentrations: GST-PCAFBRD (20 nM), SA-XL665 (62.5 nM), α-GST donor (62.5 nM), compound 46 (500 nM). Ki was calculated using the Cheng-Prussof equation […]
(§21) Recombinant PfGCN5 (bromodomain only) was expressed in E. coli and purified using a previously described system. The protein crystallized with the compound L-45 at 293 K in 0.1M CaCl2, 30% PEG 8k, 0.2 M NH4SO4. The concentrations of the protein sample and the compound were 10 mg/ml […]
(§22) X-ray diffraction data for the crystal was collected at 100 K at the beamline 08ID-1 of the Canadian Macromolecular Crystallography Facility. The dataset was processed using the HKL-2000 suite, and the structure solved using Phaser, a component of the CCP4 suite with molecular replacement model 4QNS. […]

[3] = molecular target: T4, PCAF‐Brd histone H3.3 interaction (Homo sapiens, UniProt Q92831); test: nanoBRET target engagement assay, PCAF-Brd / histone H3.3 in HEK293 cells; type: cell-based; conditions: live HEK293 cells; compounds 5 μM, 18 h
T4 construct: NanoLuciferase fusion of the isolated bromodomain of PCAF; expressed in transfected cells; host or cells: HEK293
T4 sequence (Q92831 723-827 limits assumed): T1 sequence (Q92831 723-827 limits assumed)
Method: page 48: NanoLuciferase Bioluminescent Resonance Energy Transfer (NanoBRET) Assay Methods HEK293 cell (8 x 105) were plated in each well of a 6-well plate and co-transfected with Histone H3.3- HaloTag (NM_002107) and a NanoLuciferase fusion of the isolated bromodomain of PCAF. Twenty hours post-transfection, cells were collected, washed with PBS, and exchanged into media containing phenol red-free DMEM and 4% FBS in the absence (control sample) or the presence (experimental sample) of 100 nM NanoBRET 618 fluorescent ligand (Promega). Cell density was adjusted to 2 x 10^5 cells/ml and then re-plated in a 96-well assay white plate (Corning Costar #3917). […] Readings were performed within 5 minutes using a Glo-MAX Discover instrument (Promega) equipped with 450/8 nm bandpass and 600 nm longpass filters with a 0.3 sec reading setting. A corrected BRET ratio was calculated and is defined as the ratio of the emission at 600 nm/450 nm for experimental samples (i.e. those treated with NanoBRET fluorescent ligand) subtracted by and the emission at 600 nm/450 nm for control samples (not treated with NanoBRET fluorescent ligand). BRET ratios are expressed as milliBRET units (mBU), where 1 mBU corresponds to the corrected BRET ratio multiplied by 1000. […] Compounds were analysed by LC-MS for loss of compound at 0, 5, 15, 30 and 45 minute time points. […]

PCAF Brd [4] = molecular target: T1, PCAF Brd; test: Differential scanning fluorimetry (DSF), PCAF Brd; type: binding; conditions: compound concentration 100 μM
PCAF = tested on: PCAF; set-up: method as in earlier work; conditions: read-out: PCAF AlphaLISA IC50; cited from earlier work
[5] = Metabolic stability in human liver microsomes; type: in vitro ADME; conditions: for microsomal CLint: human liver microsomes, n 5, read-out: CLint (μL/min/mg protein) human; for half-life: human, liver microsomes, read-out: t1/2 human liver microsomes
Method: (§23) In vitro Metabolism Studies
(§24) Metabolic stability studies were carried out exposing nominated compounds to samples of liver microsomes. Compounds were analysed by LC-MS for loss of compound at 0, 5, 15, 30 and 45 minute time points. The rate of metabolic degradation of compounds was used to calculate CLint, SE CLint, t1/2 (summarised in supplemental table 2.)
(§25) Supplemental Table 4. In vitro metabolic stability of compounds DL-45/DL-Moses and 39 Compound Metbolic Stability (Human) Metbolic Stability (Mouse) […]

MDCK‐MDR1 cells = test: Permeability in MDCK-MDR1 cells; type: in vitro ADME
Kinetic solubility = type: physicochemical; conditions: kinetic from dmso stock
[6] = Metabolic stability in mouse liver microsomes; type: in vitro ADME; conditions: for microsomal CLint: mouse liver microsomes, n 5, read-out: CLint (μL/min/mg protein) mouse; for half-life: mouse, liver microsomes, read-out: t1/2 mouse liver microsomes
Method: as §23, §24, §25

PCAF Brd [7] = conditions: cited from earlier work
[8] = tested on: peripheral blood mononuclear cells (PBMC); test: Cytotoxicity in peripheral blood mononuclear cells (PBMC); type: cell-based; conditions: 10 μM for 24 hours
Method: as §18, §19, §20, §21, §22

[9] = Permeability in MDCK-MDR1 cells; type: in vitro ADME; conditions: dog, direction not given
HGCN5 Brd = molecular target: T5, HGCN5 Brd (Homo sapiens, UniProt Q92830); test: Isothermal titration calorimetry (ITC), human GCN5 Brd; type: binding
T5 construct: made in house
T5 sequence (Q92830 728-832 limits assumed): T2 sequence (Q92830 728-832 limits assumed)
Method: as §15, §16
Supplemental Figure 2. ITC trace of L-Moses and PCAF Brd
as §17

[10] = Supplemental Table 3, compound concentration 30 μM, protein concentration 280-320 μM, read-out: PCAF KD (μM) (ITC)
[11] = Table 1, read-out: K D [μM] (ITC) PCAF Brd
[12] = read-out: GCN5L2 ΔTm (°C) (DSF)
[13] = Table 2, read-out: K D (nM) (ITC) PCAF Brd

## Cc1nnc2c3ccccc3c(N[C@@H](C)CN(C)C)nn12 [(S)‐11]
PCAF Brd [1]; Supplemental Table 1, number of measurements 2, compound 10 μM, read-out: PCAF ΔTm (°C), mean ± SEM
  ΔTm at 10 µM: 5.4 °C
PCAF Brd [1]
  ΔT m [°C] PCAF (DSF): 7.4 °C
48 human Brds
  selectivity in DSF panel of 48 human Brds: no observable activity against other Brds
PCAF Brd [2]; [10]
  Kd: 0.284 µM
PCAF Brd [2]; [11]
  Kd: 0.28 ± 0.029 µM
GCN5L2; Supplemental Table 1, number of measurements 2, read-out: GCN5L2 ΔTm (°C), mean ± SEM
  ΔTm at 10 µM: 3.7 °C
GCN5L2; [12]
  ΔTm at 10 µM: 4 °C

## Cc1ccc(NCCCN)c([N+](=O)[O-])c1 [Compound 1]
HIV‐1; ref 8c, read-out: HIV-1 EC50 (disrupting HIV‐1 replication)
  EC50: 2.8 µM

## Cc1nnc2c3ccccc3c(NCC(NCCCCNC(=O)CCOCCOCCOCCOCCNC(=O)CCCCC3SCC4NC(=O)NC43)c3ccccc3)nn12 (stereo not shown) [compound 46, reference compound]
GST-PCAFBRD; GST-PCAF Brd, read-out: KD of compound 46 used for Cheng-Prusoff
  Kd: 0.4 µM

## Cc1nnc2c3ccccc3c(NC(C)C(c3ccccc3)N(C)C)nn12 (stereo not shown) [D‐45]
[3]
  displacement of PCAF‐Brd from H3.3 in nanoBRET assay: no effect
PCAF Brd [2]; [10]
  Kd: > 30 µM
PCAF Brd [2]; Table 2
  K D (nM) (ITC) PCAF Brd: no observable binding; also recorded: Inactive

## Cc1nnc2c3ccccc3c(NCCN(C)C)nn12 [Compound 7]
PCAF Brd [4]
  ΔT m [°C] PCAF (DSF): 8.5^[b] °C
PCAF Brd [2]; [10]
  Kd: 7.98 µM
PCAF Brd [2]; [11]
  Kd: 8 ± 0.65 µM

## CC(C)C[C@H]1C[C@@H](Nc2cnn(C)c(=O)c2Cl)CN(C)C1 [Compound 3]
PCAF
  IC50: 0.013 µM

## Cc1nnc2c3ccccc3c(N[C@@H](C)[C@H](c3ccccc3)N(C)C)nn12 (relative stereo) [Compound 45]
[5]
  microsomal CLint: 35 µL/min/mg
MDCK‐MDR1 cells
  efflux in MDCK‐MDR1 cells: low efflux
  permeability in MDCK‐MDR1 cells: good
Kinetic solubility
  solubility kinetic: > 200 µM
PCAF Brd [1]
  ΔT m [°C] PCAF (DSF): 7.9 °C
PCAF Brd [2]; [13]
  Kd: 0.168 ± 0.027 µM
GCN5L2; [12]
  ΔTm at 10 µM: 5 °C
[6]
  microsomal CLint: 37 µL/min/mg

## NCCCNCc1ccc(NCCCN)[n+]([O-])c1 [Compound 2]
PCAF Brd [7]
  IC50: 0.93 µM
HIV‐1; read-out: HIV-1 EC50
  EC50: 11.5 µM

## Cc1nnc2c3ccccc3c(N[C@@H](C)[C@H](c3ccc(F)cc3)N(C)C)nn12 (relative stereo) [Compound 39]
[5]
  microsomal CLint: 29 µL/min/mg
  half-life: 48 min
PCAF Brd [1]
  ΔT m [°C] PCAF (DSF): 8.3 °C
PCAF Brd [2]; [13]
  Kd: 0.195 ± 0.023 µM
GCN5L2; [12]
  ΔTm at 10 µM: 4.4 °C
[6]
  microsomal CLint: 21 µL/min/mg
  half-life: 65 min

## Cc1nnc2c3ccccc3c(N[C@@H](C)[C@H](c3ccccc3)N(C)C)nn12 [L‐45]
[5]
  half-life: 40 min
[8]
  cytotoxicity in PBMC: no observable cytotoxicity
[9]; MDCK-MDR1, first of 59/70, read-out: MDCK-MDR1 permeability, first value of the pair
  Papp: 59 ×10⁻⁶ cm/s
[9]; MDCK-MDR1, second of 59/70, read-out: MDCK-MDR1 permeability, second value of the pair
  Papp: 70 ×10⁻⁶ cm/s
HGCN5 Brd
  Kd: 0.55 µM
[3]
  displacement of PCAF‐Brd from H3.3 in nanoBRET assay: single digit μM concentration
GST-PCAFBRD
  Ki: 0.047 µM
PCAF Brd [2]; [13]
  Kd: 0.126 ± 0.015 µM
GCN5L2; 10 µM
  GCN5L2 ΔTm (°C) (DSF): +3.6 °C
[6]
  half-life: 38 min

## Cc1nnc2c3ccccc3c(N[C@H]3CCC[C@@H]3N(C)C)nn12 [Compound 76]
PCAF Brd [1]
  ΔT m [°C] PCAF (DSF): 7.3 °C
PCAF Brd [2]; [10]
  Kd: 0.168 µM
GCN5L2; [12]
  ΔTm at 10 µM: 2.4 °C

## Cc1nnc2c3ccccc3c(N3CCC(N(C)C)C3)nn12 (stereo not shown) [Compound 68]
PCAF Brd [1]
  ΔT m [°C] PCAF (DSF): 0.8 °C
PCAF Brd [2]; [10]
  Kd: > 30 µM
GCN5L2
  GCN5L2 ΔTm (°C) (DSF): 0.1 °C
